The record followed here is patent US10052320B2, “Substituted quinoxalines as FGFR kinase inhibitors” (ASTEX THERAPEUTICS LIMITED, priority 2011, dated 2018).

The target in one assay is FGFR1 (h) (Homo sapiens, UniProt P11362). Briefly: FGFR1 (enzymatic assay), TR-FRET. The conditions noted are these: read-out: FGFR 1 pIC50 (converted). Type of assay: biochemical. On the procedure: In a final reaction volume of 30 μL, FGFR1 (h) (25 ng/ml) was incubated with 50 mM HEPES pH 7.5, 6 mM MnCl2, 1 mM DTT, 0.1 mM Na3VO4, 0.01% Triton-X-100, 500 nM Btn-Flt3 and 5 μM ATP in the presence of compound (1% DMSO final). […] Time-Resolved Fluorescence Resonance Energy Transfer (TR-FRET) signal (ex340 nm. Em 620 nm, em 655 nm) was measured afterwards and results are expressed in RFU (Relative Fluorescence Units).
FGFR1 (h), sequence (P11362 22-822): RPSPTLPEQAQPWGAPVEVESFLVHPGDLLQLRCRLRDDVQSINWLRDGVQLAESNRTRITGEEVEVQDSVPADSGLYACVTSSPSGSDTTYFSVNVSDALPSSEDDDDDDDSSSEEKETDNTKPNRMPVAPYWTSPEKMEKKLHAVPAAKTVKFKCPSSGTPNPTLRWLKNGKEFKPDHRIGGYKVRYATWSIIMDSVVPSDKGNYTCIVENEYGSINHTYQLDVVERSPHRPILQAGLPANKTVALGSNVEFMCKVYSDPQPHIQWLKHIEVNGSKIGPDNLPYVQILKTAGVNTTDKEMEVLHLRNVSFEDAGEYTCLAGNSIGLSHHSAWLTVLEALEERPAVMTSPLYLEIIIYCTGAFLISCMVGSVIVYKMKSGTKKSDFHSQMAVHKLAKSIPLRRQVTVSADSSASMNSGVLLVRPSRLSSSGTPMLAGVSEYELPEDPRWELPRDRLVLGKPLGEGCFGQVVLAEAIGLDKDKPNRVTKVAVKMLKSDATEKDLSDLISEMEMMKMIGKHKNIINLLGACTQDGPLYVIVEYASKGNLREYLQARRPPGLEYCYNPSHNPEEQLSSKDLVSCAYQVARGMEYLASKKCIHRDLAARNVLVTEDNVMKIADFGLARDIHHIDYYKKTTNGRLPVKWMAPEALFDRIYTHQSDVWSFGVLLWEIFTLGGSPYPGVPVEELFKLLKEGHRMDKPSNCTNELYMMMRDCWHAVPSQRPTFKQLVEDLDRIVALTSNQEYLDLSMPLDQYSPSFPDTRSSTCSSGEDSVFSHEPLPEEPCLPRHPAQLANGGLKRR
Background: TR-FRET usually uses a lanthanide donor and a delayed reading to cut background.

Assay [1] relates to Ba/F3-KDR-transfected cells in the presence of 10 ng/ml murine IL3. Description: Ba/F3-KDR (plus IL3) cellular proliferation counterscreen, Alamar Blue. It is filed as cell-based. To be noted: Mus musculus; plus 10 ng/ml murine IL3; read-out: BAF3-KDR (PLUS IL3) 384 well pIC50 (converted). As to the method: Ba/F3-KDR (Minus IL3 or Plus IL3) (Cellular Proliferation Assay)
[…] Cells were put in an incubator at 37° C. and 5% CO2. After 24 hours, 10 μl of Alamar Blue solution (0.5 mM K3Fe(CN)6, 0.5 mM KaFe(CN)6, 0.15 mM Resazurin and 100 mM Phosphate Buffer) was added to the wells, incubated for 4 hours at 37° C. and 5% CO2 before RFU's (Relative Fluorescence Units) (ex. 540 nm., em. 590 nm.) were measured in a flurorescence plate reader.
As a counterscreen the same experiment was performed in the presence of 10 ng/ml murine IL3.
In a 96 well plate, 180 μl cell culture medium (phenol red free RPMI-1640, 10% FBS, 2 mM L-Glutamine and 50 μg/ml Gentamycin) containing 10000 cells per well of Ba/F3-KDR-transfected cells were pipette and 20 μl of compound dilution in DMSO was added. Cells were put in an incubator at 37° C. and 5% CO2. After 24 hours, 40 μl of Alamar Blue solution (0.5 mM K3Fe(CN)6, 0.5 mM KaFe(CN)6, 0.15 mM Resazurin and 100 mM Phosphate Buffer) was added to the wells, incubated for 4 hours at 37° C. and 5% CO2 RFU's (Relative Fluorescence Units) (ex. 540 nm., em. 590 nm.) were measured in a flurorescence plate reader.

Assay [2] addresses T1, Ba/F3-Flt3-transfected cells (Homo sapiens, UniProt P36888, cells depend on it, form not given).
T1 sequence (P36888 1-993): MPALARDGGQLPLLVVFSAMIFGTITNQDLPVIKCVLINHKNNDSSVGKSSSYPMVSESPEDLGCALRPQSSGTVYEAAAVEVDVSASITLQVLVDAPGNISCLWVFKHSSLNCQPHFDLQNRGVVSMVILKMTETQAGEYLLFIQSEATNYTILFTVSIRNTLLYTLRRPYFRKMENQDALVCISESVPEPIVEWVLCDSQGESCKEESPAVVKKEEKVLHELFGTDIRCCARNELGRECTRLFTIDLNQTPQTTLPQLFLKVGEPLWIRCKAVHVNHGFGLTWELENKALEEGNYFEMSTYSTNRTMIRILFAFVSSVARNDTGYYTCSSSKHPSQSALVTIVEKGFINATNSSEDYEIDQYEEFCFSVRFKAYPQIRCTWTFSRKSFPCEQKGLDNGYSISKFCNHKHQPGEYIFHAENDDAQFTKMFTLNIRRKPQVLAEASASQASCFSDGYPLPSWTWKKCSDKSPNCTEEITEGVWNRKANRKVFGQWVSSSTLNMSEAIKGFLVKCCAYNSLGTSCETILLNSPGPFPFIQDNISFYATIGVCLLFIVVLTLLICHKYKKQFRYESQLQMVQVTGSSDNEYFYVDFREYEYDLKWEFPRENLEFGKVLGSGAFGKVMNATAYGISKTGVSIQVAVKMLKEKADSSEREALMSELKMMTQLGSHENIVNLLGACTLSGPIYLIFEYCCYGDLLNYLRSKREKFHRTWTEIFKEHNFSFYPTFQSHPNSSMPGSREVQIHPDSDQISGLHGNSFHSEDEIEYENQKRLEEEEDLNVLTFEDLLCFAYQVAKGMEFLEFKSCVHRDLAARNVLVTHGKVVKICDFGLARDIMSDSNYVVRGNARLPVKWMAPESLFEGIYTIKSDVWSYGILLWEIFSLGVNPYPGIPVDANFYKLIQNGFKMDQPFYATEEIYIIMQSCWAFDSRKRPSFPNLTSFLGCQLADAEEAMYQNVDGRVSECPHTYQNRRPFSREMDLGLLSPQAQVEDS
Description: Ba/F3-Flt3 (minus IL3) cellular proliferation assay, Alamar Blue. It is filed as cell-based. To be noted: minus IL3. On the technique in general: Alamar Blue is a resazurin reagent that responds to reducing activity.

Another assay has as its target KDR (h) (VEGFR2) (Homo sapiens, UniProt P35968). Briefly: KDR (VEGFR2) (enzymatic assay), TR-FRET. Type of assay: biochemical. The method, boiled down:
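First, kinase (150 ng/ml), Btn-Flt3 (500 nM), ATP (3 μM) and compound (1% DMSO) react 120 min at RT in pH 7.5 HEPES/6 mM MnCl2. Next, EDTA with Eu-anti-P-Tyr and SA-XL-665 stops it for 60 min. Finally, TR-FRET is read as RFU.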

KDR (h) (VEGFR2), sequence (P35968 20-1356): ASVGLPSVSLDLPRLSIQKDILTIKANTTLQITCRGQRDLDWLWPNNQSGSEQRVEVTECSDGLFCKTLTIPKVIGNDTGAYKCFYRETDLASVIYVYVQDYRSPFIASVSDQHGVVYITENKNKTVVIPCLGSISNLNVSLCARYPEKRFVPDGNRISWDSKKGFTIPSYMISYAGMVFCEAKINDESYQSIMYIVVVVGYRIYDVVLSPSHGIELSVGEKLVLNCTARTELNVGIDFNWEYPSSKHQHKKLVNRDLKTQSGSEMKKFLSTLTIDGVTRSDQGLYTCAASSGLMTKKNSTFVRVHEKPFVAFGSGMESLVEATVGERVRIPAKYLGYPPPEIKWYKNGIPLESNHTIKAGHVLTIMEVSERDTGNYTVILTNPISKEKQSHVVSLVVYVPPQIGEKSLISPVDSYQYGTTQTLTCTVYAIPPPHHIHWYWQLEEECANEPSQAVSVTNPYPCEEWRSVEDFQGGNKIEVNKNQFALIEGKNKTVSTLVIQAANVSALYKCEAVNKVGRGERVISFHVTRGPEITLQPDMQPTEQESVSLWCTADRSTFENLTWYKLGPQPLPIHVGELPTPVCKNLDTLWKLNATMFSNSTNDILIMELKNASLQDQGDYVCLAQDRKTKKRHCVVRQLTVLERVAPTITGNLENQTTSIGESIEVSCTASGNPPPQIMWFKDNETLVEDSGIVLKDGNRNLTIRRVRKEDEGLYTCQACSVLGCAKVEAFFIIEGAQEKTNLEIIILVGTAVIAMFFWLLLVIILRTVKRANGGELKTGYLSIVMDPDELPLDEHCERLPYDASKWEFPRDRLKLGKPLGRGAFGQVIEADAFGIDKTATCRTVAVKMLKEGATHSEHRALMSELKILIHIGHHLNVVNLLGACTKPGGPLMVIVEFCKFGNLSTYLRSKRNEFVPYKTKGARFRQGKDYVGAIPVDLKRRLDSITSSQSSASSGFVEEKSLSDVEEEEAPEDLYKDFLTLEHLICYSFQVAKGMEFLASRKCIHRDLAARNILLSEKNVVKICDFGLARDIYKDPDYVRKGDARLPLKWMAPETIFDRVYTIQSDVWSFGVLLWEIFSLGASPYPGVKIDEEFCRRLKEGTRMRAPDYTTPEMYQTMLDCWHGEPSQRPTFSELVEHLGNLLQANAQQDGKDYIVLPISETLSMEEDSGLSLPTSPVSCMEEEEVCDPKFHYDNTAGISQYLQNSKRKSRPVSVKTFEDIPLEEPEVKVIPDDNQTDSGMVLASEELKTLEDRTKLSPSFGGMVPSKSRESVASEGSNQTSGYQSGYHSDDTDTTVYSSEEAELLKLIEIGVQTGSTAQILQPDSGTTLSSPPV

On to `COc1cc(OC)cc(N(CCN2CCN(C(C)=O)CC2)c2ccc3ncc(-c4ccc(N)nc4)nc3c2)c1` [Compound 68], for which the IC50 at FGFR1 (h) was 25.7 nM; in assay [1] it was greater than 10000 nM; on KDR (h) (VEGFR2), 229 nM. The “BAF3-FLT3 (MIN IL3) 384 well pIC50” value in assay [2] is listed as less than 5.
On to `COc1cc(OC)cc(N(CCNC(C)C)c2ccc3ncc(-n4cnc(CO)c4)nc3c2)c1` [Compound 77], for which the IC50 at FGFR1 (h) was 2.24 nM; in assay [1], greater than 10000 nM; against KDR (h) (VEGFR2) it was 513 nM. Further, the “BAF3-FLT3 (MIN IL3) 384 well pIC50” value in assay [2] is listed as less than 5.
Turning to `CNc1ccc(-c2cnc3ccc(N(CCCNCC(F)(F)F)c4cc(OC)cc(OC)c4)cc3n2)cn1` [Compound 129], the IC50 on FGFR1 (h) was 19.5 nM; in assay [1], greater than 10000 nM; against KDR (h) (VEGFR2), 363 nM. In assay [2], the “BAF3-FLT3 (MIN IL3) 384 well pIC50” value was less than 5.
In the same order, the values of `COc1cc(OC)cc(N(CCO)c2ccc3ncc(-c4ccnc(C(=O)NCCCCCO)c4)nc3c2)c1` [Compound 139] are 31.6 nM, greater than 10000 nM, 692 nM and less than 5.
On to `COc1cc(OC)cc(N(CCCNCC(F)(F)F)c2ccc3ncc(-c4ccnc(Cl)c4)nc3c2)c1` [Compound 145], for which the IC50 on FGFR1 (h) is 115 nM; in assay [1], greater than 10000 nM; on KDR (h) (VEGFR2), greater than 1000 nM. Also, in assay [2], the “BAF3-FLT3 (MIN IL3) 384 well pIC50” value is on record as less than 5.
The like results for `COc1cc(OC)cc(N(CCCNCC(F)(F)F)c2ccc3ncc(-c4ccnc(C(=O)NCCCCCO)c4)nc3c2)c1` [Compound 150] were, in that order, 91.2 nM, greater than 10000 nM, 708 nM and less than 5.
In the same order, the values of `COc1cc(OC)cc(N(CCO)c2ccc3ncc(-c4ccccc4CCO)nc3c2)c1` [Compound 151] are 282 nM, greater than 10000 nM, greater than 1000 nM and less than 5.
The like results for `COc1cc(OC)cc(N(CCO)c2ccc3ncc(-c4ccc(N5CCN(C(=O)OC(C)(C)C)CC5)cc4)nc3c2)c1` [Compound 156] were, in that order, 45.7 nM, greater than 10000 nM, 407 nM and less than 5.
As for `COc1cc(OC)cc(N(CCCNCC(F)(F)F)c2ccc3ncc(C(=O)NCCN4CCOCC4)nc3c2)c1` [Compound 158], the IC50 on FGFR1 (h) is 398 nM; in assay [1], greater than 10000 nM; at KDR (h) (VEGFR2) it was greater than 1000 nM. For the same compound, the “BAF3-FLT3 (MIN IL3) 384 well pIC50” value in assay [2] is less than 5.
The like results for `COc1cc(OC)cc(N(CCNC(C)C)c2ccc3ncc(C(=O)NCCCN4CCN(C)CC4)nc3c2)c1` [Compound 159] were, in that order, 31.6 nM, greater than 10000 nM, greater than 1000 nM and less than 5.
Take `COc1cc(OC)cc(N(CCNC(C)C)c2ccc3ncc(C(=O)NCCN4CCOCC4)nc3c2)c1` [Compound 160]: the IC50 on FGFR1 (h) was 42.7 nM; in assay [1] it was greater than 10000 nM; against KDR (h) (VEGFR2) it was greater than 1000 nM. Further, in assay [2], the “BAF3-FLT3 (MIN IL3) 384 well pIC50” value was less than 5.
In the same order, the values of `COc1cc(OC)cc(N(CCNC(C)C)c2ccc3ncc(NCC4CCNCC4)nc3c2)c1` [Compound 161] are 5.89 nM, greater than 10000 nM, 617 nM and less than 5.
In the same order, the values of `COc1cc(OC)cc(N(CCO)c2ccc3ncc(-c4ccc(N5CCN(C)CC5)nc4)nc3c2)c1` [Compound 163] are 7.41 nM, 7590 nM, 355 nM and 5.32.
Consider `COc1cc(OC)cc(N(CCO)c2ccc3ncc(-c4ccc(N5CCNCC5)nc4)nc3c2)c1` [Compound 165], for which the IC50 on FGFR1 (h) was 3.89 nM; in assay [1], greater than 10000 nM; against KDR (h) (VEGFR2), 129 nM. Moreover, the “BAF3-FLT3 (MIN IL3) 384 well pIC50” value in assay [2] is listed as 5.38.
Take `COc1cc(OC)cc(N(CCO)c2ccc3ncc(-c4ccc(N5CCNCC5)cc4)nc3c2)c1` [Compound 166]: the IC50 is 0.513 nM at FGFR1 (h), 6030 nM in assay [1] and 23.4 nM against KDR (h) (VEGFR2). Moreover, in assay [2], the “BAF3-FLT3 (MIN IL3) 384 well pIC50” value stood at 5.46.
Consider `COc1cc(OC)cc(N(CCNC(C)C)c2ccc3ncc(-n4cnc(COC(C)=O)c4)nc3c2)c1` [Compound 167], for which the IC50 at FGFR1 (h) is 1.66 nM; in assay [1], greater than 10000 nM; at KDR (h) (VEGFR2), 251 nM. The “BAF3-FLT3 (MIN IL3) 384 well pIC50” value in assay [2] is less than 5.
In the case of `COc1cc(OC)cc(N(CCNC(C)C)c2ccc3ncc(-c4ccc(N5CCOCC5)nc4)nc3c2)c1` [Compound 168], the IC50 on FGFR1 (h) is 0.955 nM; in assay [1], 7080 nM; against KDR (h) (VEGFR2), 63.1 nM. Also, the “BAF3-FLT3 (MIN IL3) 384 well pIC50” value in assay [2] came to 5.13.
Consider `COc1cc(OC)cc(N(CCN2CCOCC2)c2ccc3ncc(-c4ccc(N)nc4)nc3c2)c1` [Compound 169], for which the values for the IC50 (at FGFR1 (h); in assay [1]; at KDR (h) (VEGFR2)) were 8.71 nM, greater than 10000 nM and 126 nM, respectively. Moreover, in assay [2], the “BAF3-FLT3 (MIN IL3) 384 well pIC50” value is listed as less than 5.
The like results for `COc1cc(OC)cc(N(CCNC(C)C)c2ccc3ncc(-c4ccc(N5CCN(C)CC5)nc4)nc3c2)c1` [Compound 170] were, in that order, 0.813 nM, greater than 10000 nM, 135 nM and 5.47.
The like results for `COc1cc(OC)cc(N(CCO)c2ccc3ncc(/C(C)=N/OC(C)(C)C)nc3c2)c1` [Compound 171] were, in that order, 603 nM, greater than 10000 nM, greater than 1000 nM and less than 5.
As to `COC(=O)C1CCCN1c1cnc2ccc(N(CCO)c3cc(OC)cc(OC)c3)cc2n1` (centres unmarked) [Compound 172], the IC50 was 107 nM at FGFR1 (h), greater than 10000 nM in assay [1] and greater than 1000 nM at KDR (h) (VEGFR2). In assay [2], the “BAF3-FLT3 (MIN IL3) 384 well pIC50” value is listed as 5.19.
In the same order, the values of `COc1cc(OC)cc(N(CCO)c2ccc3ncc(C4=CCN(C(=O)OC(C)(C)C)C4)nc3c2)c1` [Compound 173] are 29.5 nM, greater than 10000 nM, 479 nM and less than 5.
`COc1cc(OC)cc(N(CCO)c2ccc3ncc(C4=CCN(C(=O)OC(C)(C)C)CC4)nc3c2)c1` [Compound 178]: the IC50 on FGFR1 (h) is 5.13 nM; in assay [1] it was greater than 10000 nM; at KDR (h) (VEGFR2), greater than 1000 nM. Further, the “BAF3-FLT3 (MIN IL3) 384 well pIC50” value in assay [2] is less than 5.
